According to patent US10881662B2, “Intracellular ATP enhancer” (StaGen Co., Ltd., priority 2016, dated 2021):

Assays:
[1] = tested on: patients with chronic stable angina; details: high-dose administration; cited from earlier work
serum uric acid = experiment: Test Example 1: serum uric acid value (uricase-peroxidase method); format: in vivo, human
Protocol: For a clinical chemistry automatic analyzer, a dry clinical chemistry analysis measuring unit manufactured by ARKRAY, Inc. was used, and the serum uric acid value was measured by using the uricase-peroxidase method.
The following administration test was conducted for 16 Japanese healthy adult males, one subject in Phase I and 15 subjects in Phase II divided into Group A to Group E with 3 subjects each. […]
After Phase I, the following contents were administered to three subjects in each group: […]
(§1) Group E: febuxostat 30 mg twice a day for 14 days.

urinary Hx = experiment: Test Example 1: urinary purine concentrations, hypoxanthine; format: in vivo, human; details: Week 0 to Week 2, FIG. 5; single administration or combined use, doses not distinguished
Protocol: (§2) Various purines in peripheral blood were measured according to the Reference. Briefly, peripheral blood was collected with EDTA, 500 μL mixed with 500 μL ice cold 8% PCA, immediately vortexed for five seconds, and centrifuged at 12,000×g for 10 minutes at 4° C., and the supernatant was stored at −80° C. The processed sample was then dissolved, with 40 μL of 2M K2CO3 in 6 M KOH added to 650 μL of the solution to simultaneously precipitate the PCA and neutralize the solution. After this solution was centrifuged at 12,000×g for 10 minutes at 4° C., 160 μL of a mobile phase was added to 40 μL of the supernatant and applied to HPLC. The conditions of HPLC were also set according to the Reference. The amounts of purines are expressed in molar quantity contained in 1 L of whole blood.
The purine concentrations were measured by the same method as in (4).
(§3) The following administration test was conducted for 16 Japanese healthy adult males, one subject in Phase I and 15 subjects in Phase II divided into Group A to Group E with 3 subjects each.
(§4) After Phase I, the following contents were administered to three subjects in each group:
(§5) Group A: febuxostat 20 mg twice a day for 14 days;
(§6) Group B: inosine 500 mg of twice a day for 14 days;
(§7) Group C: febuxostat 20 mg and inosine 500 mg twice a day for 14 days;
Group D: febuxostat 20 mg and inosine 1000 mg twice a day for 14 days; and […]

urinary uric acid = experiment: Test Example 1: urinary uric acid concentration/creatinine concentration; format: in vivo, human; details: Week 0 to Week 2
Protocol: Since the urinary uric acid concentration varies with urine volume, a urinary uric acid amount was evaluated by using a urinary uric acid/creatinine value acquired by dividing by urinary creatinine concentration. The measurement method of the uric acid value was the same as that for the serum uric acid value.
as §3, §4, §5, §6, §7
(§8) Group D: febuxostat 20 mg and inosine 1000 mg twice a day for 14 days; and
as §1

[2] = tested on: erythrocytes with low ATP; details: erythrocytes left at low temperature for 20 to 30 days, inosine added, left to stand for 1 hour; cited from earlier work
urinary X = experiment: Test Example 1: urinary purine concentrations, xanthine; format: in vivo, human; details: for change in urinary X concentration: Week 0 to Week 2, FIG. 5, single administration or combined use, doses not distinguished
Parkinson's disease = details: administration of inosine; cited from earlier work
blood ATP = experiment: Test Example 1: blood purine concentrations by HPLC, ATP; format: in vivo, human; details: Week 0 to Week 2
Protocol: as §2
(§9) Coolen E J, Arts I C, Swennen E L, Bast A, Stuart M A, Dagnelie P C. Simultaneous determination of adenosine triphosphate and its metabolites in human whole blood by RP-HPLC and UV-detection. J Chromatogr B Analyt Technol Biomed Life Sci. 2008 Mar. 15; 864(1-2): 43-51.
as §3, §4, §5, §6, §7, §8, §1

blood Hx (hypoxanthine) = experiment: Test Example 1: blood purine concentrations by HPLC, hypoxanthine; format: in vivo, human; details: Week 0 to Week 2
Protocol: as §2, §9, §3, §4, §5, §6, §7, §8, §1

multiple sclerosis = details: administration of inosine; cited from earlier work
blood X (xanthine) = experiment: Test Example 1: blood purine concentrations by HPLC, xanthine; format: in vivo, human; details: Week 0 to Week 2
Protocol: as §2, §9, §3, §4, §5, §6, §7, §8, §1

[3] = tested on: model mouse of amyotrophic lateral sclerosis; details: model mouse of ALS; cited from earlier work
[4] = Groups A-C: febuxostat 20 mg and/or inosine 500 mg twice a day for 14 days
[5] = Group E: febuxostat 30 mg twice a day for 14 days
[6] = Group E: febuxostat 60 mg/day alone for 14 days

Oc1ncnc2[nH]ncc12 [allopurinol]
symptoms of chronic stable angina [1]: suppressed

OC[C@H]1O[C@@H](n2cnc3c(O)ncnc32)[C@H](O)[C@@H]1O [inosine]
serum uric acid value increase due to inosine in the presence of febuxostat (serum uric acid; 1 g/day inosine in the presence of 40 mg/day of febuxostat (Group C versus Group A)): 0.3 mg/dL | serum uric acid value increase due to inosine in the presence of febuxostat (serum uric acid; 2 g/day inosine in the presence of 40 mg/day of febuxostat (Group D versus Group A)): 1.06 mg/dL | serum uric acid value raised by, on average (serum uric acid; Phase II Group B: inosine 500 mg twice a day (1 g per day) for 14 days, without febuxostat): 2.57 mg/dL | serum uric acid value, highest observed (up to) (serum uric acid; Phase II Group B: inosine 500 mg twice a day for 14 days): up to 8.1 mg/dL | change in urinary Hx concentration (urinary Hx): no rise | change in urinary uric acid/creatinine (urinary uric acid; [4]): significantly increased | ATP in erythrocytes [2]: ATP increased | maximum concentration of urinary X (urinary X; [4]): 61.9 µM | change in urinary X concentration (urinary X): no rise | symptoms of Parkinson's disease (Parkinson's disease): alleviates symptoms | change in blood ATP concentration (blood ATP; [4]): not changed | change in blood Hx (hypoxanthine) concentration (blood Hx (hypoxanthine); [4]): neither Hx nor X changed | symptoms of multiple sclerosis (multiple sclerosis): alleviates symptoms | change in blood X (xanthine) concentration (blood X (xanthine); [4]): neither Hx nor X changed

Cc1nc(-c2ccc(OCC(C)C)c(C#N)c2)sc1C(=O)O [febuxostat]
serum uric acid value, lowest observed (serum uric acid; Phase II Group E: febuxostat 30 mg twice a day (60 mg/day) for 14 days): less than 2 mg/dL | serum uric acid value reduced by (serum uric acid; Phase II Group E: febuxostat 30 mg twice a day for 14 days): 3.93 mg/dL | serum uric acid value reduced by (serum uric acid; Phase II Groups A and C: febuxostat 20 mg alone or with inosine 500 mg, twice a day for 14 days): 2.53 mg/dL | serum uric acid value, not reduced to less than (serum uric acid; Phase II, any of the administration examples of 40 mg/day of febuxostat, 14 days): ≥ 2 mg/dL | change in urinary Hx concentration (urinary Hx): moderate rise | change in urinary uric acid/creatinine (urinary uric acid; [5]): reduced | change in urinary uric acid/creatinine (urinary uric acid; [4]): reduced | maximum concentration of urinary X (urinary X; [5]): 867.7 µM | maximum concentration of urinary X (urinary X; [4]): 556.0 µM | change in urinary X concentration (urinary X): significantly increased | change in blood ATP concentration (blood ATP; [5]): No certain tendency was observed | change in blood ATP concentration (blood ATP; [4]): not changed | change in blood Hx (hypoxanthine) concentration (blood Hx (hypoxanthine); [6]): slight rise | change in blood Hx (hypoxanthine) concentration (blood Hx (hypoxanthine); [4]): unchanged | change in blood X (xanthine) concentration (blood X (xanthine); [6]): rise | change in blood X (xanthine) concentration (blood X (xanthine); [4]): significantly increased | disease progression of amyotrophic lateral sclerosis [3]: inhibits disease progression
